The results in this text go back to patent publication US8614215B2, “Quinoxaline inhibitors of phosphoinositide-3-kinases (PI3Ks)” (Merck Serono SA, priority 2007, dated 2013).

The test system of this assay is Human recombinant GST-PI3K. The experiment in a line: PI3K induced-lipid phosphorylation, neomycin-SPA scintillation proximity assay. It counts as biochemical. The following applies: Human recombinant GST-PI3K, SPA. From the text: The efficacy of compounds of the invention in inhibiting the PI3K induced-lipid phosphorylation may be tested in the following binding assay. The assay combines the scintillation proximity assay technology (SPA, Amersham) with the capacity of neomycin (a polycationic antibiotic) to bind phospholipids with high affinity and specificity. The Scintillation Proximity Assay is based on the properties of weakly emitting isotopes (such as ^3H, ^125I, ^33P). Coating SPA beads with neomycin allows the detection of phosphorylated lipid substrates after incubation with recombinant PI3K and radioactive ATP in the same well, by capturing the radioactive phospholipids to the SPA beads through their specific binding to neomycin.
To a 96 wells MTP containing 10 μL of the test compound of Formula (I) (solubilized in 10% DMSO; […]), the following assay components are added: 1) 10 μL of lipid micelles 2) 20 μL of Kinase buffer ([^33P]γATP162 μM/300 nCi, MgCl2 2.5 mM, DTT 2.5 mM, Na3VO4 25 uM in Hepes 40 mM, pH 7.4) and 3) 10 μL (100 ng) of Human recombinant GST-PI3K (in Hepes 40 mM, pH 7.4, ethylenglycol 4%). After incubation at room temperature for 120 minutes, with gentle agitation, the reaction is stopped by addition of 200 μL of a solution containing 250 μg of neomycin-coated PVT SPA beads, ATP 60 mM and EDTA 6.2 mM in PBS. The assay is further incubated at room temperature for 60 minutes with gentle agitation to allow binding of phospholipids to neomycin-SPA beads. After precipitation of the neomycin-coated PVT SPA beads for 5 minutes at 1500×g, radioactive PtdIns(3)P is quantified by scintillation counting in a Wallac MicroBeta™ plate counter.
The values indicated in Table I below refer to the IC50 (μM) with respect to PI3K, i.e. the amount necessary to achieve 50% inhibition of said target. Said values show a considerable inhibitory potency of quinoxaline compounds with regard to PI3K.
For orientation: SPA uses beads or plates that emit light when radiolabelled molecules are held near them.
The term IC50 denotes the point on the concentration scale where inhibition reaches its midpoint. Turning to `COc1ccc(CC2CCCCC2)c(Nc2nc3ccccc3nc2NS(=O)(=O)c2ccc(CN(C)C)cc2)c1` [Example 87, N-(3-{[2-(cyclohexylmethyl)-5-methoxyphenyl]amino}quinoxalin-2-yl)-4-[(dimethylamino)methyl]benzenesulfonamide], the IC50 is 760 nM.

In the case of `COc1ccc(CCS(C)(=O)=O)c(Nc2nc3ccccc3nc2NS(=O)(=O)C(C)C)c1` [Example 52, N-[3-({5-Methoxy-2-[2-(methylsulfonyl)ethyl]phenyl}amino)quinoxalin-2-yl]propane-2-sulfonamide], the half-maximal inhibitory concentration (IC50) was 160 nM. As for `COc1ccc(CCCO)c(Nc2nc3ccccc3nc2NS(=O)(=O)c2cn(C)c(CN(C)C)n2)c1` [Example 47, 2-[(Dimethylamino)methyl]-N-(3-{[2-(3-hydroxypropyl)-5-methoxyphenyl]amino}quinoxalin-2-yl)-1-methyl-1H-imidazole-4-sulfonamide], the IC50 stood at 28 nM. In the case of `COc1ccc(CCO)c(Nc2nc3ccccc3nc2NS(=O)(=O)c2c(C)noc2C)c1` [Example 43], the IC50 was found to be 286 nM.

Consider `COc1ccc(CC2CCN(C(C)=O)CC2)c(Nc2nc3ccccc3nc2NS(C)(=O)=O)c1` [Example 18], for which the half-maximal inhibitory concentration (IC50) came out at 170 nM. With `COc1ccc(CCO)c(Nc2nc3ccccc3nc2NS(=O)(=O)c2ccc(CCCO)cc2)c1` [Example 93, N-(3-{[2-(2Hydroxyethyl)-5-methoxyphenyl]amino}quinoxalin-2-yl)-4-(3-hydroxypropyl)benzenesulfonamide], the 50% inhibitory concentration (IC50) was 36 nM. As for `COc1ccc(CN2CCN(C)CC2)c(Nc2nc3ccccc3nc2NS(=O)(=O)c2ccc(F)cc2)c1` [Example 82, 4-fluoro-N-[3-({5-methoxy-2-[(4-methylpiperazin-1-yl)methyl]phenyl}amino)quinoxalin-2-yl]benzenesulfonamide], the half-maximal inhibitory concentration (IC50) is 110 nM. With `CCCS(=O)(=O)Nc1nc2ccccc2nc1Nc1cc(OC)ccc1CCCO` [Example 49, N-(3-{[2-(3-Hydroxypropyl)-5-methoxyphenyl]amino}quinoxalin-2-yl)propane-1-sulfonamide], the half-maximal inhibitory concentration (IC50) was 49 nM. Turning to `COc1ccc(CCCO)c(Nc2nc3ccccc3nc2NS(=O)(=O)c2cccc(NC(=O)CO)c2)c1` [Example 102, 2-Hydroxy-N-(3-{[(3-{[2-(3-hydroxypropyl)-5-methoxyphenyl]amino}quinoxalin-2-yl)amino]sulfonyl}phenyl)acetamide], the half-maximal inhibitory concentration (IC50) stood at 12 nM.

With `COc1ccc(CCO)c(Nc2nc3ccccc3nc2NS(=O)(=O)CCCS(C)(=O)=O)c1` [Example 61, N-(3-{[2-(2-Hydroxyethyl)-5-methoxyphenyl]amino}quinoxalin-2-yl)-3-(methylsulfonyl)propane-1-sulfonamide], the half-maximal inhibitory concentration (IC50) amounted to 120 nM. The result for `COc1cc(Nc2nc3ccccc3nc2NS(=O)(=O)CCCS(C)(=O)=O)cc(C(=O)NCCO)c1` [Example 73, N-(2-Hydroxyethyl)-3-methoxy-5-{[3-({[3-(methylsulfonyl)propyl]sulfonyl}amino)quinoxalin-2-yl]amino}benzamide] reads 350 nM. Turning to `COc1ccc(CCCO)c(Nc2nc3ccccc3nc2NS(=O)(=O)c2cccc(NC(=O)COCc3ccccc3)c2)c1` [Example 72], the half-maximal inhibitory concentration (IC50) came out at 480 nM. In the case of `COc1ccc(CO)c(Nc2nc3ccccc3nc2NS(=O)(=O)c2cn(C)cn2)c1` [Example 91, N-(3-{[2-(hydroxymethyl)-5-methoxyphenyl]amino}quinoxalin-2-yl)-1-methyl-1H-imidazole-4-sulfonamide], the IC50 turned out to be 470 nM. In the case of `COc1ccc(CC2CCSCC2)c(Nc2nc3ccccc3nc2NS(=O)(=O)c2ccc(CN(C)C)cc2)c1` [Example 88, 4-[(dimethylamino)methyl]-N-(3-{[5-methoxy-2-(tetrahydro-2H-thiopyran-4-ylmethyl)phenyl]amino}quinoxalin-2-yl)benzenesulfonamide], the IC50 came to 35 nM. The same measure for `COc1ccc(CC2CCS(=O)(=O)CC2)c(Nc2nc3ccccc3nc2NS(=O)(=O)c2cn(C)cn2)c1` [Example 26, N-[3-({2-[(1,1-dioxidotetrahydro-2H-thiopyran-4-yl)methyl]-5-methoxyphenyl}amino)auinoxalin-2-yl]-1-methyl-1H-imidazole-4-sulfonamide]: 30 nM; for `COc1ccc(CCCO)c(Nc2nc3ccccc3nc2NS(=O)(=O)c2cn(C)c(CS(C)(=O)=O)n2)c1` [Example 76, N-(3-{[2-(3-Hydroxypropyl)-5-methoxyphenyl]amino}quinoxalin-2-yl)-1-methyl-2-[(methylsulfonyl)methyl]-1H-imidazole-4-sulfonamide]: 87 nM; for `COc1ccc(C(C)C)c(Nc2nc3ccccc3nc2NS(=O)(=O)c2cn(C)cn2)c1` [Example 30, N-{3-[(2-Isopropyl-5-methoxyphenyl)amino]quinoxalin-2-yl}-1-methyl-1H-imidazole-4-sulfonamide]: 200 nM. The result for `COc1ccc(CCO)c(Nc2nc3ccccc3nc2NS(=O)(=O)c2ccc(NC(=O)CN(C)C)cc2)c1` [Example 70, 2-Dimethylamino-N-(4-{[(3-{[2-(2-hydroxyethyl)-5-methoxyphenyl]amino}quinoxalin-2-yl)]sulfamoyl}phenyl)-acetamide] reads 27 nM; that for `COc1ccc(CCCO)c(Nc2nc3ccccc3nc2NS(=O)(=O)c2cn(C)cn2)c1` [Example 28, N-(3-{[2-(3-Hydroxypropyl)-5-methoxyphenyl]amino}quinoxalin-2-yl)-1-methyl-1H-imidazole-4-sulfonamide], 21 nM. For the compound `COc1cc(Nc2nc3ccccc3nc2NS(=O)(=O)c2cn(C)cn2)cc(C(=O)NCCO)c1` [Example 67, N-(2-Hydroxyethyl)-3-methoxy-5-[(3-{[(1-methyl-1H-imidazol-4-yl)sulfonyl]amino}quinoxalin-2-yl)amino]benzamide], the half-maximal inhibitory concentration (IC50) worked out at 100 nM. Turning to `COCCc1ccc(OC)cc1Nc1nc2ccccc2nc1NS(=O)(=O)c1cn(C)cn1` [Example 62, N-(3-{[5-Methoxy-2-(2-methoxyethyl)phenyl]amino}quinoxalin-2-yl)-1-methyl-1H-imidazole-4-sulfonamide], the IC50 was 83 nM. The result for `COc1cc(Nc2nc3ccccc3nc2NS(=O)(=O)c2cccnc2)cc(C(=O)N2CCOCC2)c1` [Example 5, N-(3-{[3-methoxy-5-(morpholin-4-ylcarbonyl)phenyl]amino}quinoxalin-2-yl)pyridine-3-sulfonamide] reads 3100 nM; that for `COc1ccc(C(CO)CO)c(Nc2nc3ccccc3nc2NS(=O)(=O)c2cn(C)cn2)c1` [Example 29, N-[3-({2-[2-Hydroxy-1-(hydroxymethyl)ethyl]-5-methoxyphenyl}amino)quinoxalin-2-yl]-1-methyl-1H-imidazole-4-sulfonamide], 550 nM; that for `COc1ccc(CC(O)CO)c(Nc2nc3ccccc3nc2NS(=O)(=O)c2cn(C)cn2)c1` [Example 77, N-[3-({2-[(2R,2S)-2,3-Dihydroxypropyl]-5-methoxyphenyl}amino)quinoxalin-2-yl]-1-methyl-1H-imidazole-4-sulfonamide], 120 nM.

As to `COc1ccc(CC2CCC(O)CC2)c(Nc2nc3ccccc3nc2NS(=O)(=O)c2ccc(CN(C)C)cc2)c1` (stereo not drawn) [Example 84, 4-[(dimethylamino)methyl]-N-[3-({2-[(4-hydroxycyclohexyl)methyl]-5-methoxyphenyl}amino)quinoxalin-2-yl]benzenesulfonamide], the IC50 was 26 nM.

Take `COc1ccc(CCO)c(Nc2nc3ccccc3nc2NS(=O)(=O)C2CCCCC2)c1` [Example 45, N-(3-{[2-(2-Hydroxyethyl)-5-methoxyphenyl]amino}quinoxalin-2-yl) cyclohexanesulfonamide]: the IC50 stood at 57 nM. The result for `COc1ccc(CC2CCS(=O)(=O)CC2)c(Nc2nc3ccccc3nc2NS(=O)(=O)c2ccc(CN(C)C)cc2)c1` [Example 85, 4-[(dimethylamino)methyl]-N-[3-({2-[(1,1-dioxidotetrahydro-2H-thiopyran-4-yl)methyl]-5-methoxyphenyl}amino)quinoxalin-2-yl]benzenesulfonamide] reads 10 nM. The same measure for `COc1ccc(CCCO)c(Nc2nc3ccccc3nc2NS(=O)(=O)CCCS(C)(=O)=O)c1` [Example 60, N-(3-{[2-(3-Hydroxypropyl)-5-methoxyphenyl]amino}quinoxalin-2-yl)-3-(methylsulfonyl)propane-1-sulfonamide]: 120 nM. As to `COc1ccc(CCO)c(Nc2nc3ccccc3nc2NS(=O)(=O)c2ccc(C(=O)N(C)C)cc2)c1` [Example 32, 4-{[(3-{[2-(2-Hydroxyethyl)-5-methoxyphenyl]amino}quinoxalin-2-yl)amino]sulfonyl}-N,N-dimethylbenzamide], the IC50 was determined as 250 nM.

Take `COc1ccc(CC2CCC(O)CC2)c(Nc2nc3ccccc3nc2NS(=O)(=O)c2cn(C)cn2)c1` (stereo not drawn) [Example 22, N-[3-({2-[(4-hydroxycyclohexyl)methyl]-5-methoxyphenyl}amino)quinoxalin-2-yl]-1-methyl-1H-imidazole-4-sulfonamide]: the IC50 is 18 nM.
